Assay results published in the kinase profiling compilation of Christmann-Franck et al. (2016).
Several values for one entry are separate records, joined by “and”; a condition that tells them apart may be missing. Equal values may be shown once.

Experiments:
Assay in all cases: radiometric filter-binding kinase assay, Kinase HotSpot
Conditions in all cases: compound 0.5 µM; ATP 10 µM
PRKCH (human) = PRKCH (human) (UniProt P24723)
MET (human) = MET (human) (UniProt P08581)
CAMKK1 (human) = CAMKK1 (human) (UniProt Q8N5S9)
RPS6KB1 (human) = RPS6KB1 (human) (UniProt P23443)
DCLK2 (human) = DCLK2 (human) (UniProt Q8N568)
PAK2 (human) = PAK2 (human) (UniProt Q13177)
PDPK1 (human) = PDPK1 (human) (UniProt O15530)
MARK1 (human) = MARK1 (human) (UniProt Q9P0L2)
PAK6 (human) = PAK6 (human) (UniProt Q9NQU5)
CAMKK2 (human) = CAMKK2 (human) (UniProt Q96RR4)
CDK1 CCNA2 (human) = CDK1 CCNA2 (human) (UniProt P06493+P20248)
CAMK4 (human) = CAMK4 (human) (UniProt Q16566)
OXSR1 (human) = OXSR1 (human) (UniProt O95747)
NEK1 (human) = NEK1 (human) (UniProt Q96PY6)
MAP3K14 (human) = MAP3K14 (human) (UniProt Q99558)
ABL2 (human) = ABL2 (human) (UniProt P42684)
IKBKB (human) = IKBKB (human) (UniProt O14920)
JAK3 JH1 JH2 (human) = JAK3 JH1 JH2 (human) (UniProt P52333)
AKT1 (human) = AKT1 (human) (UniProt P31749)
PRKCB2 (human) = PRKCB2 (human) (UniProt P05771)
RIPK2 (human) = RIPK2 (human) (UniProt O43353)
ZAP70 (human) = ZAP70 (human) (UniProt P43403)
RPS6KA3 KD1 KD2 (human) = RPS6KA3 KD1 KD2 (human) (UniProt P51812)
PTK6 (human) = PTK6 (human) (UniProt Q13882)
STK16 (human) = STK16 (human) (UniProt O75716)
AURKA (human) = AURKA (human) (UniProt O14965)
PRKCA (human) = PRKCA (human) (UniProt P17252)
SRPK3 (human) = SRPK3 (human) (UniProt Q9UPE1)
LYN (human) = LYN (human) (UniProt P07948)
MAPKAPK5 (human) = MAPKAPK5 (human) (UniProt Q8IW41)
BRSK2 (human) = BRSK2 (human) (UniProt Q8IWQ3)
NTRK1 (human) = NTRK1 (human) (UniProt P04629)
MAPK9 (human) = MAPK9 (human) (UniProt P45984)
[1] = target: TYK2 JH1 catalytic (human) (UniProt P29597)
PAK4 (human) = PAK4 (human) (UniProt O96013)
CDK3 CCNE1 (human) = CDK3 CCNE1 (human) (UniProt Q00526+P24864)
SYK (human) = SYK (human) (UniProt P43405)
DYRK1B (human) = DYRK1B (human) (UniProt Q9Y463)
TXK (human) = TXK (human) (UniProt P42681)
IGF1R (human) = IGF1R (human) (UniProt P08069)
Chain of IGF1R (human) (P08069 whole entry, looked up): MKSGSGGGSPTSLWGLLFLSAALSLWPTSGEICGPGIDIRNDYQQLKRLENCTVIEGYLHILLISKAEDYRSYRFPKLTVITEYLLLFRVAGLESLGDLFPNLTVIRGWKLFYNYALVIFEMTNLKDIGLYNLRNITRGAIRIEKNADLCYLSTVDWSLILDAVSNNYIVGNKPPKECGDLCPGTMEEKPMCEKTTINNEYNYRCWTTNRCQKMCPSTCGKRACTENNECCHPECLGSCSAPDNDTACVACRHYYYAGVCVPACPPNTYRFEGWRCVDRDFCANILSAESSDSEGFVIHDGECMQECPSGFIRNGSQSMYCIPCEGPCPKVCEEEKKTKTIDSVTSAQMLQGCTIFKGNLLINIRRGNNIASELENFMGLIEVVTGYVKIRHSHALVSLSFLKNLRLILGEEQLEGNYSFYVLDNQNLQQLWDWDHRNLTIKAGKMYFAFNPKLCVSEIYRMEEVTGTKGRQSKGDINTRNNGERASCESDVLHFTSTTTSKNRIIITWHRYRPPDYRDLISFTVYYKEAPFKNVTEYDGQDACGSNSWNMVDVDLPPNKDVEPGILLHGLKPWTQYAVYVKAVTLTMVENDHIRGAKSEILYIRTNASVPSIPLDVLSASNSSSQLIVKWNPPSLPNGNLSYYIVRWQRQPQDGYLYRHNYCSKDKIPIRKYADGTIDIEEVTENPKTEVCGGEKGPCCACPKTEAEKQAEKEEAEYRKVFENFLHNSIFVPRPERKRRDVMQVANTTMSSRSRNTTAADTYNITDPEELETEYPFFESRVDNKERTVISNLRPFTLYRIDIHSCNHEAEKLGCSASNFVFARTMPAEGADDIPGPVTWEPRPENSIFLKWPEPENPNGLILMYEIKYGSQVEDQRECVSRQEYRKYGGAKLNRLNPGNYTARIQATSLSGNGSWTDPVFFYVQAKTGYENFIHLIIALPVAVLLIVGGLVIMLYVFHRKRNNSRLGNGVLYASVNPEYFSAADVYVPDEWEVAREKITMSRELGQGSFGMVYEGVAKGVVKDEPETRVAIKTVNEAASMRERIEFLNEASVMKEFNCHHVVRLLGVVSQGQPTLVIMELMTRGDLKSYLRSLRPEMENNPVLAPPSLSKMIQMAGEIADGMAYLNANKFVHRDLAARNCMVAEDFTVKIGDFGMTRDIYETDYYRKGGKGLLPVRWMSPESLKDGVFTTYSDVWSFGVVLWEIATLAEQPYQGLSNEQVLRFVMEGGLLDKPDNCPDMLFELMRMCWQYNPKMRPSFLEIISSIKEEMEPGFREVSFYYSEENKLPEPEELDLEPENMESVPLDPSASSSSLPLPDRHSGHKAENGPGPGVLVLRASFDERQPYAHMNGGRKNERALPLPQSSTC

Chain of PRKCH (human) (P24723 whole entry, looked up): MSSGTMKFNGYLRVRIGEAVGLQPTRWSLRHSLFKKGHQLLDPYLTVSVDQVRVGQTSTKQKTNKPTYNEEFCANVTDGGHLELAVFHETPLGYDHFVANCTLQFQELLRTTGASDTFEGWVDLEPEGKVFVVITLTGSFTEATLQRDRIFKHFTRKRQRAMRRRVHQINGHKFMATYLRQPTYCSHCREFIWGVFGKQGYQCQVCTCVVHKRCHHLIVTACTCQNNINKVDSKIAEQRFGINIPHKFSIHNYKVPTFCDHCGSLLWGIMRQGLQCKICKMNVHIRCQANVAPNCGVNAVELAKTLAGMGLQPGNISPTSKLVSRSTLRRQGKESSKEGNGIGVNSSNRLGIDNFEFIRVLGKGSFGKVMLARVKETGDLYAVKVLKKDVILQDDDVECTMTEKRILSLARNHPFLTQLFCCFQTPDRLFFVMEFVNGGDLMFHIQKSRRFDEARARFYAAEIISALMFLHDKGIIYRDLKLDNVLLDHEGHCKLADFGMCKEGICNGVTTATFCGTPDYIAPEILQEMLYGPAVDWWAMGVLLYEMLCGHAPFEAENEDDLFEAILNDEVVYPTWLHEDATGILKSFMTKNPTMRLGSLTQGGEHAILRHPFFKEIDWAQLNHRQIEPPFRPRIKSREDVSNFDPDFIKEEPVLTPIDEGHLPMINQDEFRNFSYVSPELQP
Chain of AURKA (human) (O14965 whole entry, looked up): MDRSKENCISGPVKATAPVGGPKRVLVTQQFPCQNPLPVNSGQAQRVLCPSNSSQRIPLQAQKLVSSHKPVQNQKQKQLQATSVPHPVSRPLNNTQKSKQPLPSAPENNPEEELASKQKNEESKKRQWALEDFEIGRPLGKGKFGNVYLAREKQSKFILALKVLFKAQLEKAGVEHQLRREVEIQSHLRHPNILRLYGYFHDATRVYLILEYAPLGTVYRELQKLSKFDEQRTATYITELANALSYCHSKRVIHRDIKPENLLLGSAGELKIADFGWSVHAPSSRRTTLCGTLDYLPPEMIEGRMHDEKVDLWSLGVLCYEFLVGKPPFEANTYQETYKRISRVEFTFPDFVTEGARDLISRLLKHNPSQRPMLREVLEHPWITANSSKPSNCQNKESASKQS
Chain of ABL2 (human) (P42684 whole entry, looked up): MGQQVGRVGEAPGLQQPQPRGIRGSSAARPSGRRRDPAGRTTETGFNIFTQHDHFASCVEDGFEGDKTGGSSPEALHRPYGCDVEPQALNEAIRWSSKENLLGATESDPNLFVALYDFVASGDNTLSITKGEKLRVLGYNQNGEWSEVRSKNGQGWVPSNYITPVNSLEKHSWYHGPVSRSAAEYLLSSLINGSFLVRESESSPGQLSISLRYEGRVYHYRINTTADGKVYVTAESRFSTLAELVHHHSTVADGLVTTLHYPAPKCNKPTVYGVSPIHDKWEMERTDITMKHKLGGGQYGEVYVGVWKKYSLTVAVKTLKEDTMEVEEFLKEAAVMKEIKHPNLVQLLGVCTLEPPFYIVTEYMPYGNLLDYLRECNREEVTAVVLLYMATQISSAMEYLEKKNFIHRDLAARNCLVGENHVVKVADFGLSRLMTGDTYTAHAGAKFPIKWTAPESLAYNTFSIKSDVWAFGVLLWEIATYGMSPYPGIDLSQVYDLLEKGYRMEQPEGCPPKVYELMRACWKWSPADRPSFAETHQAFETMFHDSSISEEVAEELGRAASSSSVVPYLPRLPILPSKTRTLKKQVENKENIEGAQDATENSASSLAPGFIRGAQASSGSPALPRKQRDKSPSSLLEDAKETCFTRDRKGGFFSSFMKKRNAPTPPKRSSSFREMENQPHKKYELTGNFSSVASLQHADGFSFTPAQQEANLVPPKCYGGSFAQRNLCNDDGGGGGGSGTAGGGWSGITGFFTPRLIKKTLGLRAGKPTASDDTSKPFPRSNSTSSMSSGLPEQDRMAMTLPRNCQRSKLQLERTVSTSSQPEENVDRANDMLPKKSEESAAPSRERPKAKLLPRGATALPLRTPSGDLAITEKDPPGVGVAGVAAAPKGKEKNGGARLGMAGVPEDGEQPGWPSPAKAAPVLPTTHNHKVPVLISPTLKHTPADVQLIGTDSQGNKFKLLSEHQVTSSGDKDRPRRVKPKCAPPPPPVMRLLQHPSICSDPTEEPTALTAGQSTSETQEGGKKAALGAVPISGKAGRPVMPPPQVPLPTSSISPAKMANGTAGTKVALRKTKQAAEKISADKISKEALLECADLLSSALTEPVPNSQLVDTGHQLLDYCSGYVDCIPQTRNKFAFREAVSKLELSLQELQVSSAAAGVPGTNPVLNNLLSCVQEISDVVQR
Chain of PRKCB2 (human) (P05771 whole entry, looked up): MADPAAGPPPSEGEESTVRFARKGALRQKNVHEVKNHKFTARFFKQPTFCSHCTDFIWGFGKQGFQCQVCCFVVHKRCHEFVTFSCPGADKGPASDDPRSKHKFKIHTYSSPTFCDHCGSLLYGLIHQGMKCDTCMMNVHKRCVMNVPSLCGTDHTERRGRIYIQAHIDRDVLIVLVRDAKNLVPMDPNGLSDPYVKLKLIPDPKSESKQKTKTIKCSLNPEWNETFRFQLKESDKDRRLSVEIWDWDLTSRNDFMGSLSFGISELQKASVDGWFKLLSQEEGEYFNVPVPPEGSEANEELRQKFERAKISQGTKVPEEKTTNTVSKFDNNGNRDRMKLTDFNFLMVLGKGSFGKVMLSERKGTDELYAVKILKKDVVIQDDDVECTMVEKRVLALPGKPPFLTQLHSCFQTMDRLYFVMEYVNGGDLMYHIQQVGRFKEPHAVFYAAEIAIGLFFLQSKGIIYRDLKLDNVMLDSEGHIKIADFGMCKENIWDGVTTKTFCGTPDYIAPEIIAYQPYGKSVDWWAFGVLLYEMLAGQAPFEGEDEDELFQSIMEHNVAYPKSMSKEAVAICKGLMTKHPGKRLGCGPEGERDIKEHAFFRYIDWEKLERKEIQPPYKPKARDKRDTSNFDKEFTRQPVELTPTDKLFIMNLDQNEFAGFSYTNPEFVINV
Chain of CAMKK2 (human) (Q96RR4 whole entry, looked up): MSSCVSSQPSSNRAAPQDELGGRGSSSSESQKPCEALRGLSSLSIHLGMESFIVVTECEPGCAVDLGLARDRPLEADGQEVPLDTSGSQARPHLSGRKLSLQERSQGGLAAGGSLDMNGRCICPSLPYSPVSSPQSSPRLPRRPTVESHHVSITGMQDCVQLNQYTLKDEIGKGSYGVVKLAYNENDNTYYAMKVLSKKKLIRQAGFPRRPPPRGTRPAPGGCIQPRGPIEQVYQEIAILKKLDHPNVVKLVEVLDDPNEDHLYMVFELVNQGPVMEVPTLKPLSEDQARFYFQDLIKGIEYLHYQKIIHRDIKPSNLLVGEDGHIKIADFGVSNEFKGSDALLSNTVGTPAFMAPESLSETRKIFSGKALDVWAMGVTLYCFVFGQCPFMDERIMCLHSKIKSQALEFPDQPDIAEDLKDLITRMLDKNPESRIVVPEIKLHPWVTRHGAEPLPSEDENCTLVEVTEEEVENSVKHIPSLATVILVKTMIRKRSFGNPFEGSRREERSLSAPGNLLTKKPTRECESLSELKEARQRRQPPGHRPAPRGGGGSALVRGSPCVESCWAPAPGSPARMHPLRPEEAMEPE

| Compound | residual activity (PRKCH (human)) [%] | residual activity (CAMKK1 (human)) [%] | residual activity (RPS6KB1 (human)) [%] | residual activity (DCLK2 (human)) [%] | residual activity (PDPK1 (human)) [%] | residual activity (MARK1 (human)) [%] | residual activity (PAK6 (human)) [%] | residual activity (CAMKK2 (human)) [%] | residual activity (CDK1 CCNA2 (human)) [%] | residual activity (CAMK4 (human)) [%] | residual activity (NEK1 (human)) [%] | residual activity (MAP3K14 (human)) [%] | residual activity (ABL2 (human)) [%] | residual activity (JAK3 JH1 JH2 (human)) [%] | residual activity (AKT1 (human)) [%] | residual activity (PRKCB2 (human)) [%] | residual activity (RIPK2 (human)) [%] | residual activity (ZAP70 (human)) [%] | residual activity (STK16 (human)) [%] | residual activity (AURKA (human)) [%] | other results |
| --- | --- | --- | --- | --- | --- | --- | --- | --- | --- | --- | --- | --- | --- | --- | --- | --- | --- | --- | --- | --- | --- |
| O=c1cc(N2CCOCC2)oc2c1ccc1ccccc12 | 94.7 | 112 | 99.3 | 100 | 109 | 99.5 | 92 | 104 | 103 | 94 | 106 | 81.2 | 101 | 103 | 101 | 99.9 | 104 | 103 | 99 | 98 | residual activity (MET (human)): 161%; residual activity (PAK2 (human)): 103%; residual activity (OXSR1 (human)): 108%; residual activity (IKBKB (human)): 105%; residual activity (RPS6KA3 KD1 KD2 (human)): 103%; residual activity (PTK6 (human)): 101%; residual activity (PRKCA (human)): 89.2%; residual activity (SRPK3 (human)): 105%; residual activity (LYN (human)): 102% and 104%; residual activity (MAPKAPK5 (human)): 98.4%; residual activity (BRSK2 (human)): 92.6%; residual activity (NTRK1 (human)): 96.4%; residual activity (MAPK9 (human)): 101%; residual activity [1]: 111%; residual activity (PAK4 (human)): 108%; residual activity (CDK3 CCNE1 (human)): 102%; residual activity (SYK (human)): 93%; residual activity (DYRK1B (human)): 90.5%; residual activity (TXK (human)): 98.9% |
| O=S(=O)(c1cccc2cnccc12)N1CCCNCC1 | 84 | 108 | 76.6 | 83.9 | 91.3 | 98.6 | 87 | 95.9 | 98.6 | 92.9 | 90.3 | 97.7 | 87.6 | 120 | 99.3 | 101 | 86.4 | 108 | 91.7 | 101 | residual activity (IGF1R (human)): 112%; residual activity (PTK6 (human)): 96.1%; residual activity (PRKCA (human)): 94.8%; residual activity (SRPK3 (human)): 96.4%; residual activity (LYN (human)): 102% and 106%; residual activity (MAPKAPK5 (human)): 72.6%; residual activity (BRSK2 (human)): 91.7%; residual activity (NTRK1 (human)): 89.6%; residual activity (MAPK9 (human)): 87%; residual activity [1]: 81.6%; residual activity (CDK3 CCNE1 (human)): 76.6%; residual activity (SYK (human)): 84.3%; residual activity (DYRK1B (human)): 96.3%; residual activity (TXK (human)): 84.1% |
| c1ccc(-c2n[nH]c3c2oc2ccccc23)cc1 | 80.9 | 97 | 99.9 | 90.2 | 94.7 | 98.6 | 87.5 | 87.5 | 94.1 | 93.7 | 95.2 | 71.8 | 86.7 | 132 | 86.9 | 113 | 78.8 | 89 | 89.1 | 103 | residual activity (MET (human)): 98.4%; residual activity (IGF1R (human)): 98.1%; residual activity (PAK2 (human)): 92.3%; residual activity (OXSR1 (human)): 101%; residual activity (IKBKB (human)): 92.2%; residual activity (RPS6KA3 KD1 KD2 (human)): 109%; residual activity (PRKCA (human)): 92.9%; residual activity (SRPK3 (human)): 94.5%; residual activity (LYN (human)): 102% and 108%; residual activity (MAPKAPK5 (human)): 103%; residual activity (BRSK2 (human)): 101%; residual activity (NTRK1 (human)): 85.6%; residual activity (MAPK9 (human)): 96.5%; residual activity [1]: 89.2%; residual activity (PAK4 (human)): 111%; residual activity (CDK3 CCNE1 (human)): 90%; residual activity (SYK (human)): 97.7%; residual activity (DYRK1B (human)): 101%; residual activity (TXK (human)): 81.5% |
| CCN(CC)C(=O)c1ccc(Nc2nc(OCC3CCCCC3)c3nc[nH]c3n2)cc1 | 86.7 | 96.8 | 89.5 | 97.3 | 69.1 | 82.7 | 95.5 | 97.5 | 95.2 | 97.7 | 53.1 | 132 | 67.8 | 6.39 | 98.8 | 95 | 97.2 | 94 | 33.6 | 3.03 | residual activity (MET (human)): 85.3%; residual activity (IGF1R (human)): 28.4%; residual activity (OXSR1 (human)): 99%; residual activity (IKBKB (human)): 97.3%; residual activity (RPS6KA3 KD1 KD2 (human)): 17.6%; residual activity (PTK6 (human)): 30.7%; residual activity (PRKCA (human)): 82.5%; residual activity (SRPK3 (human)): 68.1%; residual activity (LYN (human)): 78.2% and 89.7%; residual activity (MAPKAPK5 (human)): 87.8%; residual activity (BRSK2 (human)): 82.5%; residual activity (NTRK1 (human)): 81.4%; residual activity (MAPK9 (human)): 60.8%; residual activity [1]: 4.96%; residual activity (PAK4 (human)): 51.5%; residual activity (CDK3 CCNE1 (human)): 90.4%; residual activity (SYK (human)): 61.1%; residual activity (DYRK1B (human)): 90.2%; residual activity (TXK (human)): 46% |
| CC[n+]1c(/C=C/N(C)c2ccccc2)n(-c2ccccc2)c2ccc(-c3nc4ccccc4s3)cc21 | 101 | 115 | 96.8 | 102 | 103 | 104 | 95.5 | 115 | 98.8 | 93.2 | 102 | 96 | 95.7 | 106 | 104 | 118 | 88.6 | 95.5 | 98.4 | 88.1 | residual activity (MET (human)): 108%; residual activity (IGF1R (human)): 93%; residual activity (PAK2 (human)): 97.3%; residual activity (OXSR1 (human)): 94.2%; residual activity (IKBKB (human)): 98.6%; residual activity (RPS6KA3 KD1 KD2 (human)): 109%; residual activity (PTK6 (human)): 90.2%; residual activity (PRKCA (human)): 77.7%; residual activity (LYN (human)): 100% and 110%; residual activity (MAPKAPK5 (human)): 96.8%; residual activity (BRSK2 (human)): 95.7%; residual activity (NTRK1 (human)): 99.1%; residual activity (MAPK9 (human)): 94.6%; residual activity [1]: 88.5%; residual activity (PAK4 (human)): 109%; residual activity (CDK3 CCNE1 (human)): 92.2%; residual activity (SYK (human)): 104%; residual activity (DYRK1B (human)): 101%; residual activity (TXK (human)): 107% |
